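Step 1: Grow cells in 96-well plates. Step 2: Expose to compound for 48 hours at 5 concentrations. Step 3: Interpolate endpoints linearly; if unreached, use highest concentration. At the TGI there is no net growth.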
Tests used:
Test in all cases: growth of human tumour cells (NCI), 48 h
A549 NSCLC = test system: A549 NSCLC
ACHN renal = test system: ACHN renal
EKVX NSCLC = test system: EKVX NSCLC
IGROV1 ovarian = test system: IGROV1 ovarian
M14 melanoma = test system: M14 melanoma
MALME-3M melanoma = test system: MALME-3M melanoma
MDA-MB-435 = test system: MDA-MB-435
NCI-H226 lung = test system: NCI-H226 lung
NCI-H460 lung = test system: NCI-H460 lung
NCI-H522 lung = test system: NCI-H522 lung
OVCAR-3 ovarian = test system: OVCAR-3 ovarian
OVCAR-4 ovarian = test system: OVCAR-4 ovarian
OVCAR-8 ovarian = test system: OVCAR-8 ovarian
SK-MEL-2 melanoma = test system: SK-MEL-2 melanoma
SN12C renal = test system: SN12C renal
SNB-19 CNS = test system: SNB-19 CNS
SR leukemia = test system: SR leukemia
UO-31 renal = test system: UO-31 renal
RPMI-8226 leukemia = test system: RPMI-8226 leukemia
A498 renal = test system: A498 renal

SMILES	TGI (A549 NSCLC) [µM]	TGI (ACHN renal) [µM]	TGI (EKVX NSCLC) [µM]	TGI (IGROV1 ovarian) [µM]	TGI (M14 melanoma) [µM]	TGI (MALME-3M melanoma) [µM]	TGI (MDA-MB-435) [µM]	TGI (NCI-H226 lung) [µM]	TGI (NCI-H460 lung) [µM]	TGI (NCI-H522 lung) [µM]	TGI (OVCAR-3 ovarian) [µM]	TGI (OVCAR-4 ovarian) [µM]	TGI (OVCAR-8 ovarian) [µM]	TGI (SK-MEL-2 melanoma) [µM]	TGI (SN12C renal) [µM]	TGI (SNB-19 CNS) [µM]	TGI (SR leukemia) [µM]	TGI (UO-31 renal) [µM]	TGI (RPMI-8226 leukemia) [µM]	TGI (A498 renal) [µM]
CN(C)Cc1cc(C(C)(C)C)cc(C2CCCCC2)c1O	26.5	28.9	24.1	34.8	> 100	17.9	36.6	31.2	38.3	37.2	28.3	24.4	26.4	35	29.9	25.6	25.6	32.5		
COc1cc(C(=O)Nc2cc(C(N)=O)cc(OC)c2OC)cc(NC(=O)/C=C/c2ccccc2)c1OC	> 100	> 100	> 100	> 100		64	> 100		> 100	> 100	> 100	> 100	> 100		85.6	> 100	> 100	> 100	> 100	
Cc1ccc(S(=O)(=O)NCCCSCCSCCCN)cc1	> 100	> 100			> 100		> 100	> 100	> 100	> 100	> 100	> 100	> 100		> 100	> 100	> 100	> 100		> 100
O=c1oc2ccc([N+](=O)[O-])cc2c(Nc2ccc3c(c2)S(=O)(=O)c2ccccc2O3)c1[N+](=O)[O-]	> 100	> 100	> 100	> 100	> 100	> 100	> 100	96.8	> 100	> 100	> 100	> 100	> 100	> 100	> 100	> 100	> 100	> 100	> 100	
CC(=O)c1cc(C)n2c1CS[C@@H]2c1ccccc1	> 100	> 100	> 100	> 100	> 100	> 100	> 100	> 100		> 100	> 100	> 100	> 100	> 100	> 100	> 100	> 100	> 100	44	> 100
CC1OC(OC2C(Oc3cc(O)c4c(c3)O[C@H](c3ccc(O)cc3)CC4=O)OC(CO)C(O)C2O)C(O)C(O)C1O (stereo partly specified)	> 100	> 100	> 100	> 100	> 100	> 100	> 100	> 100		> 100	> 100	> 100	> 100	> 100	> 100		> 100	> 100	> 100	> 100
CC[C@@H]1/C=C/C=C/C[C@H](C)[C@@H](O)[C@](C)(O)C(=O)[C@H](C)[C@@H](O)[C@H](C)C(=O)[C@H](C)[C@@H](O)[C@H](C)/C=C/C(=O)O[C@H]2[C@@H](C)[C@@H](CC1)O[C@@]1(CC[C@@H](C)[C@@H](CC(C)O)O1)[C@@H]2C (stereo partly specified)	9.1	8.69	10.8	5.96	6.52	15.6	6.89		4.25	3.89	3.95	9.33	8.85	8.4	4.95	19.8	13	12.3	10.3	9.12
CN1C(=O)C2C=C3CCCCC3=CC2N(C)C1=O (stereo unspecified)	> 100	> 100	> 100	> 100	> 100	> 100	> 100	> 100	> 100	> 100	> 100	> 100	> 100	> 100	> 100	> 100	> 100	> 100	> 100	> 100
CC(=O)NNc1nc(C)c(C(=O)NNC(=O)C(=O)Nc2c(C)cccc2C(C)(C)C)s1	> 100	> 100	> 100	> 100	> 100			> 100	> 100	57.1		> 100	> 100	> 100	> 100	> 100	> 100	> 100	> 100	> 100

From PubChem BioAssay (NCI)
